Measurements as given in PubChem BioAssay AID256 (DTP/NCI, 2004).
Where “and” joins values, the source holds several entries; their conditions need not be identical. Equal entries are not always repeated. Toxic doses and inconclusive results are not listed. Rule for the calls: active = survival T/C of 150% or more; inactive = T/C below 125% in these data.

Tested on: CD2F1 mice, L1210 leukemia ip, survival T/C
Assay: NCI In Vivo Anticancer Drug Screen. Data for tumor model L1210 Leukemia (intraperitoneal) in CD2F1 (CDF1) mice
Settings: higher = longer survival
Method in brief: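 Ratio T/C, where T is the treated-group value and C the vehicle-dosed control value, from mice implanted with a transplantable tumor.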

[1] = endpoint: mean survival time, dose: 100.0 mg/kg/injection, schedule: Q01DX001 (ip), vehicle: saline with Tween-80
[2] = endpoint: mean survival time, dose: 100.0 mg/kg/injection, schedule: Q04DX002 (ip), vehicle: saline with Tween-80
[3] = endpoint: mean survival time, dose: 200.0 mg/kg/injection, schedule: Q01DX001 (ip), vehicle: saline with Tween-80
[4] = endpoint: mean survival time, dose: 200.0 mg/kg/injection, schedule: Q04DX002 (ip), vehicle: saline with Tween-80
[5] = endpoint: mean survival time, dose: 400.0 mg/kg/injection, schedule: Q01DX001 (ip), vehicle: saline with Tween-80
[6] = endpoint: mean survival time, dose: 400.0 mg/kg/injection, schedule: Q04DX002 (ip), vehicle: saline with Tween-80
[7] = endpoint: mean survival time, dose: 25.0 mg/kg/injection, schedule: Q01DX009 (ip), vehicle: saline with Tween-80
[8] = endpoint: mean survival time, dose: 50.0 mg/kg/injection, schedule: Q01DX009 (ip), vehicle: saline with Tween-80
[9] = endpoint: mean survival time, dose: 100.0 mg/kg/injection, schedule: Q01DX009 (ip), vehicle: saline with Tween-80
[10] = endpoint: mean survival time, dose: 100.0 mg/kg/injection, schedule: Q04DX003 (ip), vehicle: saline with Tween-80
[11] = endpoint: mean survival time, dose: 200.0 mg/kg/injection, schedule: Q01DX009 (ip), vehicle: saline with Tween-80
[12] = endpoint: mean survival time, dose: 200.0 mg/kg/injection, schedule: Q04DX003 (ip), vehicle: saline with Tween-80
[13] = endpoint: mean survival time, dose: 400.0 mg/kg/injection, schedule: Q01DX009 (ip), vehicle: saline with Tween-80
[14] = endpoint: mean survival time, dose: 400.0 mg/kg/injection, schedule: Q04DX003 (ip), vehicle: saline with Tween-80
[15] = endpoint: mean survival time, dose: 50.0 mg/kg/injection, schedule: Q01DX009 (ip), vehicle: Klucel (hydroxypropylcellulose) (HPC)
[16] = endpoint: mean survival time, dose: 100.0 mg/kg/injection, schedule: Q01DX009 (ip), vehicle: Klucel (hydroxypropylcellulose) (HPC)
[17] = endpoint: mean survival time, dose: 200.0 mg/kg/injection, schedule: Q01DX009 (ip), vehicle: Klucel (hydroxypropylcellulose) (HPC)
[18] = endpoint: mean survival time, dose: 75.0 mg/kg/injection, schedule: Q01DX001 (ip), vehicle: saline
[19] = endpoint: mean survival time, dose: 100.0 mg/kg/injection, schedule: Q04DX002 (ip), vehicle: saline

Measured: T/C

CC(C)CP(=O)(CC(C)C)CC(C)C
inactive: endpoint: mean survival time, dose: 1.56 mg/kg/injection, schedule: Q04DX003 (ip), vehicle: saline with Tween-80 98 % of control | endpoint: mean survival time, dose: 3.13 mg/kg/injection, schedule: Q04DX003 (ip), vehicle: saline with Tween-80 98 % of control | endpoint: mean survival time, dose: 6.25 mg/kg/injection, schedule: Q04DX003 (ip), vehicle: saline with Tween-80 101 % of control

CC(C)(C)C1CCC(S(=O)c2ccccc2)CC1 (stereo unspecified)
inactive: [1] 105 % of control | [2] 90 % of control | [3] 100 % of control | [4] 93 % of control | [5] 103 % of control | [6] 93 % of control

OC1c2ccccc2CC1N1CCCCC1 (stereo unspecified)
inactive: [7] 95 % of control | [8] 101 % of control | [9] 98 % of control

Cc1ccc([N+](=O)[O-])cc1NC(=O)Oc1ccc(Cl)cc1
inactive: [9] 98 % of control | [10] 92 % of control | [11] 98 % of control | [12] 95 % of control | [13] 91 % of control | [14] 88 % of control

Cc1[nH]c(=O)[nH]c(=O)c1-n1nnc2ccccc2c1=O
inactive: [10] 97 % of control | [12] 97 % of control | [14] 95 % of control

CNC(=O)c1n[nH]c(C)c1[N+](=O)[O-]
inactive: endpoint: mean survival time, dose: 25.0 mg/kg/injection, schedule: Q01DX009 (ip), vehicle: Klucel (hydroxypropylcellulose) (HPC) 107 % of control | [15] 107 % of control | [16] 107 % of control | [17] 104 % of control | endpoint: mean survival time, dose: 400.0 mg/kg/injection, schedule: Q01DX009 (ip), vehicle: Klucel (hydroxypropylcellulose) (HPC) 102 % of control

CC(=O)Nc1ccc(S(=O)(=O)OCCCl)cc1
inactive: [10] 96 % of control | [12] 110 % of control | [14] 102 % of control

O=C1C=CC(=Nc2ccccc2Cl)O1
inactive: [10] 103 % of control | [12] 101 % of control | [14] 100 % of control

CC(NNC(=S)N(C)C1CCCCC1)c1cc2ccccc2cn1 (stereo unspecified)
inactive: endpoint: median survival time, dose: 12.5 mg/kg/injection, schedule: Q01DX005 (ip), vehicle: saline with Tween-80 103 % of control | endpoint: median survival time, dose: 12.5 mg/kg/injection, schedule: Q01DX005 (ip), vehicle: saline 97 % of control | endpoint: median survival time, dose: 25.0 mg/kg/injection, schedule: Q01DX005 (ip), vehicle: saline with Tween-80 120 % of control | endpoint: median survival time, dose: 25.0 mg/kg/injection, schedule: Q01DX005 (ip), vehicle: saline 102 % of control and 109 % of control | endpoint: median survival time, dose: 50.0 mg/kg/injection, schedule: Q01DX005 (ip), vehicle: saline with Tween-80 90 % of control | endpoint: median survival time, dose: 50.0 mg/kg/injection, schedule: Q01DX005 (ip), vehicle: saline 113 % of control and 114 % of control

CCCCCC(O)CCCC (stereo unspecified)
inactive: [8] 91 % of control | [9] 100 % of control | [11] 106 % of control

Cc1ccc(S(=O)(=O)OCC(OS(=O)(=O)c2ccc(C)cc2)C2OC3OC(C)(C)OC3C2OS(=O)(=O)c2ccc(C)cc2)cc1 (stereo unspecified)
inactive: [9] 103 % of control | [10] 96 % of control | [11] 103 % of control | [12] 87 % of control | [13] 89 % of control | [14] 90 % of control

CC(=O)OCC1OC(Oc2c(Br)cc(Br)cc2Br)C(OC(C)=O)C(OC(C)=O)C1OC(C)=O (stereo unspecified)
inactive: [9] 96 % of control | [11] 94 % of control | [13] 96 % of control

O=C(OC(c1ccccc1)(C(F)(F)F)C(F)(F)F)c1ccccc1Sc1ccccc1
inactive: [10] 98 % of control | [12] 93 % of control | [14] 93 % of control

CCOC(=O)C(N=O)C(=O)c1ccccc1 (stereo unspecified)
inactive: endpoint: mean survival time, dose: 100.0 mg/kg/injection, schedule: Q01DX009 (ip), vehicle: saline sonified 95 % of control | [10] 96 % of control | endpoint: mean survival time, dose: 200.0 mg/kg/injection, schedule: Q01DX009 (ip), vehicle: saline sonified 101 % of control | [12] 95 % of control | endpoint: mean survival time, dose: 400.0 mg/kg/injection, schedule: Q01DX009 (ip), vehicle: saline sonified 92 % of control | [14] 86 % of control

O=C(O)CN(CC(=O)O)C1CCCCC1N(CC(=O)O)CC(=O)O.[Cl][Pd][Cl] (stereo unspecified)
inactive: endpoint: median survival time, dose: 10.0 mg/kg/injection, schedule: Q04DX003 (ip), vehicle: saline 103 % of control | endpoint: median survival time, dose: 20.0 mg/kg/injection, schedule: Q04DX003 (ip), vehicle: saline 100 % of control | endpoint: median survival time, dose: 40.0 mg/kg/injection, schedule: Q04DX003 (ip), vehicle: saline 103 % of control | endpoint: median survival time, dose: 80.0 mg/kg/injection, schedule: Q04DX003 (ip), vehicle: saline 103 % of control and 106 % of control | endpoint: median survival time, dose: 160.0 mg/kg/injection, schedule: Q04DX003 (ip), vehicle: saline 98 % of control

CC(=O)OCC(OC(C)=O)C1OC(OC2CCCCC2)C(OC(C)=O)C(OC(C)=O)C1OC(C)=O (stereo unspecified)
inactive: [1] 93 % of control | [3] 98 % of control | [5] 88 % of control

COc1ccc(C(=O)NN)cc1
inactive: [7] 115 % of control | [8] 110 % of control | [9] 109 % of control | [10] 101 % of control

NNC(=O)c1cccc([N+](=O)[O-])c1
inactive: [18] 109 % of control

OC(c1ccccc1)(c1ccccc1)c1ccccc1Cl
inactive: [9] 98 % of control | [11] 101 % of control | [13] 102 % of control

CN(C)CCCN=Cc1ccccc1O.CN(C)CCCN=Cc1ccccc1O.[Ni+2]
inactive: endpoint: mean survival time, dose: 6.25 mg/kg/injection, schedule: Q01DX009 (ip), vehicle: saline with Tween-80 100 % of control | endpoint: mean survival time, dose: 12.5 mg/kg/injection, schedule: Q01DX009 (ip), vehicle: saline with Tween-80 101 % of control | [7] 89 % of control

COC(=O)c1ccc(-n2cc(C(=O)OC)c([N+]#N)c2[O-])cc1
inactive: [2] 107 % of control | [4] 88 % of control | [12] 93 % of control | [6] 107 % of control | [14] 93 % of control

CCO[Si](C)(CCCOCC1CO1)OCC (stereo unspecified)
inactive: [15] 102 % of control | [16] 100 % of control | [17] 94 % of control

C=CCCCCCCCCC(=O)N1CCOCC1
inactive: [19] 97 % of control

Nc1nc(SCc2ccccc2[N+](=O)[O-])c2[nH]cnc2n1
inactive: endpoint: mean survival time, dose: 125.0 mg/kg/injection, schedule: Q01DX Z (ip), vehicle: carboxymethylcellulose (CMC) 102 % of control | endpoint: mean survival time, dose: 250.0 mg/kg/injection, schedule: Q01DX Z (ip), vehicle: carboxymethylcellulose (CMC) 104 % of control | endpoint: mean survival time, dose: 500.0 mg/kg/injection, schedule: Q01DX Z (ip), vehicle: carboxymethylcellulose (CMC) 116 % of control | endpoint: mean survival time, dose: 1000.0 mg/kg/injection, schedule: Q01DX Z (ip), vehicle: carboxymethylcellulose (CMC) 112 % of control

CC(=O)NC(C)(NC(=O)CCl)C(=O)O (stereo unspecified)
inactive: [2] 100 % of control | [4] 96 % of control | [6] 93 % of control

Cc1cccc(N=NN(C)C)c1
inactive: endpoint: mean survival time, dose: 19.0 mg/kg/injection, schedule: Q01DX009 (ip), vehicle: Klucel (hydroxypropylcellulose) (HPC) 113 % of control | endpoint: mean survival time, dose: 29.0 mg/kg/injection, schedule: Q01DX009 (ip), vehicle: Klucel (hydroxypropylcellulose) (HPC) 119 % of control | endpoint: mean survival time, dose: 44.0 mg/kg/injection, schedule: Q01DX009 (ip), vehicle: Klucel (hydroxypropylcellulose) (HPC) 123 % of control | endpoint: mean survival time, dose: 66.0 mg/kg/injection, schedule: Q01DX009 (ip), vehicle: Klucel (hydroxypropylcellulose) (HPC) 114 % of control | [18] 120 % of control

CC(=O)OCC1OC(n2c(Br)nc3c(=O)[nH]c(N)nc32)C(OC(C)=O)C1OC(C)=O (stereo unspecified)
inactive: [10] 100 % of control | [12] 105 % of control | [14] 107 % of control

O.O.O=S(=O)(O)O.[Co+3].[NH2-].[NH2-].[NH2-].[NH2-]
inactive: [19] 108 % of control

NC(=O)C(NCCn1cnc2c(N)ncnc21)C(N)=O
inactive: endpoint: mean survival time, dose: 1.25 mg/kg/injection, schedule: Q01DX005 (ip), vehicle: water 92 % of control | endpoint: mean survival time, dose: 2.5 mg/kg/injection, schedule: Q01DX005 (ip), vehicle: water 92 % of control | endpoint: mean survival time, dose: 5.0 mg/kg/injection, schedule: Q01DX005 (ip), vehicle: water 92 % of control | endpoint: mean survival time, dose: 10.0 mg/kg/injection, schedule: Q01DX005 (ip), vehicle: water 95 % of control | endpoint: mean survival time, dose: 20.0 mg/kg/injection, schedule: Q01DX005 (ip), vehicle: water 95 % of control

O=C(O)CSCSCC(=O)O
inactive: endpoint: mean survival time, dose: 100.0 mg/kg/injection, schedule: Q04DX003 (ip), vehicle: saline 97 % of control | endpoint: mean survival time, dose: 200.0 mg/kg/injection, schedule: Q04DX003 (ip), vehicle: saline 100 % of control | endpoint: mean survival time, dose: 400.0 mg/kg/injection, schedule: Q04DX003 (ip), vehicle: saline 97 % of control
